Source: PubChem BioAssay (NCI)
Values joined by “and” are separate entries in the source; they are usually repeats but may differ in a detail not shown here. Equal entries are not always repeated.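 A five-concentration, 48-hour dose response in 96-well plates underlies each endpoint, interpolated linearly between surrounding concentrations. Here, GI50 denotes the concentration required for 50% inhibition of growth. TGI is the concentration that stops growth completely.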

Tests used:
Test in all cases: NCI anticancer screen, dose series, 48 h
SNB-19 CNS = test system: SNB-19 CNS
A498 renal = test system: A498 renal
OVCAR-4 ovarian = test system: OVCAR-4 ovarian
UACC-62 melanoma = test system: UACC-62 melanoma
SW-620 colon = test system: SW-620 colon
EKVX NSCLC = test system: EKVX NSCLC
DMS 273 small cell lung = test system: DMS 273 small cell lung
DLD-1 colon = test system: DLD-1 colon
MCF7 breast = test system: MCF7 breast
NCI/ADR-RES ovarian = test system: NCI/ADR-RES ovarian

SMILES | GI50 (SNB-19 CNS) | GI50 (A498 renal) | TGI (A498 renal) | GI50 (OVCAR-4 ovarian) | GI50 (UACC-62 melanoma) | TGI (UACC-62 melanoma) | GI50 (SW-620 colon) | TGI (SW-620 colon) | GI50 (EKVX NSCLC) | GI50 (DMS 273 small cell lung) | TGI (DMS 273 small cell lung) | TGI (SNB-19 CNS) | TGI (OVCAR-4 ovarian) | TGI (DLD-1 colon) | TGI (EKVX NSCLC) | GI50 (DLD-1 colon) | GI50 (MCF7 breast) | TGI (MCF7 breast) | GI50 (NCI/ADR-RES ovarian) | TGI (NCI/ADR-RES ovarian)
COC(=O)C12OCC34C(CC5C(C)C6=CC(=O)OC6=CC5(C)C3C(O)C1O)OC(=O)C(O)C24 (stereo not given) | 0.0525 µM | 0.266 µM | 0.507 µM and 1.49 µM | 0.155 µM | 0.262 µM | 0.779 µM and 1.91 µM | 0.282 µM | 9.4 µM | 0.249 µM | 0.0707 µM | 0.528 µM and 0.359 µM |  |  |  |  |  |  |  |  | 
CC(C)(C)c1ccc(OCCOCCOc2ccc(C(C)(C)C)cc2S(=O)(=O)Nc2ccc([N+](=O)[O-])cc2)c(S(=O)(=O)Nc2ccc([N+](=O)[O-])cc2)c1 |  |  | 90.9 µM |  |  | > 100 µM |  | > 100 µM |  |  | > 100 µM | > 100 µM | > 100 µM | > 100 µM | > 100 µM |  |  |  |  | 
O=C(CCn1[nH]c(=O)c(Cl)c(Cl)c1=O)NNC(=O)C[n+]1ccccc1 |  |  | > 100 µM |  |  | > 100 µM |  | > 100 µM |  |  | > 100 µM | > 100 µM | > 100 µM | > 100 µM | > 100 µM |  |  |  |  | 
Nc1n[n+](-c2ccccc2)no1 |  |  | > 100 µM |  |  | 89.6 µM |  | > 100 µM |  |  | > 100 µM | > 100 µM | > 100 µM | > 100 µM | > 100 µM |  |  |  |  | 
COc1ccc2oc(C(=O)O)c3c2c1CCC3CCC(=O)O (stereo not given) |  |  | > 100 µM |  |  | > 100 µM |  | > 100 µM |  |  | > 100 µM | > 100 µM | > 100 µM | > 100 µM | > 100 µM |  |  |  |  | 
C/C=C(\CCOS(=O)(=O)c1ccc(C)cc1)[Si](C)(C)C |  |  | > 100 µM |  |  | > 100 µM |  | > 100 µM |  |  | > 100 µM | > 100 µM |  | > 100 µM | > 100 µM |  |  |  |  | 
Cc1cccc2c1CCC21OC(=O)c2c1ccc1ccccc21 (stereo not given) |  |  | 53.4 µM |  |  | > 100 µM |  | > 100 µM |  |  | 91.5 µM | > 100 µM | > 100 µM | > 100 µM | > 100 µM |  |  |  |  | 
CCOC(=O)c1cnc2c(ccc3ncccc32)c1NCCCN(CC)CC |  |  | > 100 µM |  |  | > 100 µM |  | > 100 µM |  |  | > 100 µM | > 100 µM | > 100 µM | > 100 µM | > 100 µM |  |  |  |  | 
CC(=O)[CH-]C(=O)c1ccccc1.CC(=O)[CH-]C(=O)c1ccccc1.Cc1cc([O-])ccc1Cl.Cc1cc([O-])ccc1Cl.[Ti+4] | 26.7 µM | 17.2 µM | 42.8 µM | 40.8 µM | 17 µM | 44.9 µM | 34 µM | > 100 µM | 18 µM |  |  | 90.5 µM | > 100 µM | > 100 µM | 47.3 µM | 36.9 µM |  |  |  | 
CC1=C(O)/C(=C/C(C)CCC/C(C)=C/C=C/C(C)CCCc2ccoc2)OC1=O (stereo not given) |  |  |  |  |  |  |  | > 100 µM |  |  | > 100 µM |  | 85.3 µM | > 100 µM | 67.1 µM |  |  |  |  | 
COc1ccc2c3c(c(C(=O)c4ccccc4)oc13)CCC2 |  |  | > 100 µM |  |  | > 100 µM |  | > 100 µM |  |  | > 100 µM | > 100 µM | > 100 µM | > 100 µM | > 100 µM |  |  |  |  | 
CCOC(=O)C(CC/C=C\c1ccccc1)N1CCC[C@H]1C(=O)OC (stereo not given in full) |  |  | > 100 µM |  |  | > 100 µM |  | > 100 µM |  |  | > 100 µM | > 100 µM | > 100 µM | > 100 µM | > 100 µM |  |  |  |  | 
N#CC1(C#N)C2C=CC(c3coc4cccc2c34)C1(C#N)C#N (stereo not given) |  |  | 34.6 µM |  |  | 24.4 µM |  | 3.32 µM |  |  | 31.6 µM | 33.8 µM | 47.9 µM | 4.17 µM | 33 µM |  |  |  |  | 
CC(=O)O[C@@]1(C)[C@@H](C)C(=O)O[C@@H]2CCN3CC=C(COC(=O)[C@]1(C)O)[C@H]23 |  |  |  |  |  | > 100 µM |  | > 100 µM |  |  | > 100 µM | > 100 µM | > 100 µM | > 100 µM |  |  |  |  |  | 
Cc1cccc(C(C)(C)C)c1NC(=O)CCc1nc(=S)[nH][nH]1 |  |  | > 100 µM |  |  | > 100 µM |  | > 100 µM |  |  | > 100 µM | > 100 µM | > 100 µM | > 100 µM |  |  |  |  |  | 
Cn1c(N)nc(=O)c2c1N(C1OC(CO)C(O)C1O)CN2Cc1ccccc1 (stereo not given) |  |  | > 100 µM |  |  | > 100 µM |  | > 100 µM |  |  | > 100 µM | > 100 µM | > 100 µM | > 100 µM | > 100 µM |  |  |  |  | 
CSc1snc2sc3c(Cl)nnnc3c12 |  |  | 28.7 µM |  |  | 29.2 µM |  | 16.1 µM |  |  | 23.9 µM | 30.1 µM | 29.5 µM | 22.7 µM | 38.6 µM |  |  |  |  | 
CCC(=O)Nc1ccc(C)c(-c2ccc(C(=O)NCC3CC3)cc2)c1 | > 25 µM | > 25 µM | > 25 µM | > 24.1 µM | > 25 µM | > 25 µM | > 25 µM | > 25 µM | > 25 µM |  |  | > 25 µM | > 25 µM |  | > 25 µM |  | > 25 µM | > 25 µM | > 25 µM | > 25 µM
O=C(O/N=C1/CCC/C1=C\c1ccccc1)c1ccc(Cl)c(Cl)c1 |  |  | > 100 µM |  |  | > 100 µM |  | > 100 µM |  |  | > 100 µM |  | > 100 µM | > 100 µM | > 100 µM |  |  |  |  | 
CC(C)=CCC/C(C)=C\CCC1(C)OC(=O)C2CC21 (stereo not given) |  |  | > 100 µM | > 100 µM and 19.5 µM | > 100 µM and 34.4 µM | > 100 µM | 84.1 µM and 33.8 µM | > 100 µM | > 100 µM and 40 µM |  |  | > 100 µM | > 100 µM and 42.6 µM |  | > 100 µM |  | 64.9 µM and 21.6 µM | > 100 µM and 52.6 µM |  | > 100 µM
Cc1ccc(NC(=O)CSc2nnc3n(Cc4ccccc4)c(=O)c4c(C)c(C(N)=O)sc4n23)cc1 | 14.6 µM | 13.2 µM | 63.1 µM | > 100 µM | > 100 µM | > 100 µM | > 100 µM | > 100 µM | 95 µM |  |  | > 100 µM | > 100 µM |  | > 100 µM |  | > 100 µM | > 100 µM | > 100 µM | > 100 µM
CC(=[N-])N1CCC[C@@H](Nc2c3ccccc3nc3ccccc23)C1.[Cl][Pt].[NH-]CCC[NH-] | 1.49 µM | 0.221 µM | 0.656 µM | 1.25 µM | 0.0295 µM | 0.114 µM | 0.268 µM | > 100 µM | 2.17 µM |  |  | > 100 µM | 38.9 µM |  | 36 µM |  | 0.357 µM | > 100 µM | 46 µM | > 100 µM
Cc1cn2c(/C=N/N=C(N)N)c(-c3ccccn3)nc2s1 | 15.1 µM | 17.8 µM | 34 µM | 15.2 µM | 15.9 µM | 31.6 µM | 7.61 µM | 25 µM | 8.37 µM |  |  | 35.8 µM | 40.1 µM |  | 25.8 µM |  | 10.2 µM | > 68.2 µM | > 27.1 µM | > 67.8 µM
O=C(CC(=O)c1cccc2ccccc12)C(=O)NC1C2CC3CC(C2)CC1C3 (stereo not given) |  |  | > 100 µM |  |  | > 100 µM |  | > 100 µM |  |  | > 100 µM | > 100 µM | > 100 µM | > 100 µM | > 100 µM |  |  |  |  | 
Cc1ccc(NS(=O)(=O)c2cccc(C#N)c2)c2[nH]cc(C#N)c12 | 16.1 µM and 24.6 µM |  | 5.32 µM and 51.2 µM | 2.65 µM and 8.22 µM | 7.07 µM and 15.4 µM | 32.2 µM and 53.2 µM | 0.76 µM and 1.7 µM | > 100 µM | 26.6 µM |  |  | > 100 µM | 87.2 µM and 51.2 µM |  | 80.9 µM |  | 2.53 µM and 16.8 µM | > 100 µM | 14.2 µM and 2.49 µM | > 92.5 µM
